According to article PMC6979384, “Characterization of the plant homeodomain (PHD) reader family for their histone tail interactions” (Epigenetics & Chromatin, 2020):

Experiments:
Test in all cases: Histone peptide microarray
Assay type in all cases: binding, human
MORC3 (CW) = conditions: MORC3 (CW), GST-tagged; arrays performed twice, n of 4
Text: (§1) To more comprehensively define the histone interactions of the 31 PHD readers identified from the domain microarray analyses, we probed each on an alternate microarray platform containing a library of 293 synthetic histone peptides with single or combinatorial PTMs (Additional file 2: Figure S4 and Additional file 3: Table S2).
(§2) The 31 GST-tagged PHD readers identified in the PHD finger domain array were expressed and purified as previously. Histone peptide arrays and peptide pulldown assays were conducted as recently described (specifically, the optimized protocol from Petell et al. for the former).
(§3) Supplementary file 13072_2020_328_MOESM3_ESM.xlsx: Additional file 3: Table S2. […] Excel Tab Peptide List is a compiled list of the entire 293 histone peptide library with amino acid sequence ranges. […] Each number corresponds to the peptide number designated in Peptide List. Excel Tab Average Signals is a compiled set of binding data: chromatin reader at 0.5 μM vs. entire 293 peptide library. Data is presented as the average and standard deviation of 4 replicates. The average signals are colored to indicate signal intensity with green being strong and white being weak/low. […] Key: red= stronger relative binding; blue = weaker relative binding. Excel Tab Array info summary is a table summarizing the domains, sequence coverage, array signal range, and noise for each of the GST-tagged readers assayed on the peptide microarrays.

CHD5 (PPCC) = conditions: CHD5 (PPCC), GST-tagged; arrays performed twice, n of 4
Text: as §1, §2, §3

CHD5 (PCC) = conditions: CHD5 (PCC), GST-tagged; arrays performed twice, n of 4
Text: as §1, §2, §3

PHF2 = conditions: PHF2, GST-tagged; arrays performed twice, n of 4
Text: as §1, §2, §3

KDM7A = conditions: KDM7A, GST-tagged; arrays performed twice, n of 4
Text: as §1, §2, §3

TAF3 = conditions: TAF3, GST-tagged; arrays performed twice, n of 4
Text: as §1, §2, §3

ING5 = conditions: ING5, GST-tagged; arrays performed twice, n of 4
Text: as §1, §2, §3

RAG2 = conditions: RAG2, GST-tagged; arrays performed twice, n of 4
Text: as §1, §2, §3

PHF23 = conditions: PHF23, GST-tagged; arrays performed twice, n of 4
Text: as §1, §2, §3

DIDO1 = conditions: DIDO1, GST-tagged; arrays performed twice, n of 4
Text: as §1, §2, §3

PHRF1 (RP) = conditions: PHRF1 (RP), GST-tagged; arrays performed twice, n of 4
Text: as §1, §2, §3

CHD4 (PPCC) = conditions: CHD4 (PPCC), GST-tagged; arrays performed twice, n of 4
Text: as §1, §2, §3

TRIM66 (PB) = conditions: TRIM66 (PB), GST-tagged; arrays performed twice, n of 4
Text: as §1, §2, §3

ING1 = conditions: ING1, GST-tagged; arrays performed twice, n of 4
Text: as §1, §2, §3

SP140L = conditions: SP140L, GST-tagged; arrays performed twice, n of 4
Text: as §1, §2, §3

DPF2 (PPC2W2) = conditions: DPF2 (PPC2W2), GST-tagged; arrays performed twice, n of 4
Text: as §1, §2, §3

PHF13 = conditions: PHF13, GST-tagged; arrays performed twice, n of 4
Text: as §1, §2, §3

ING4 = conditions: ING4, GST-tagged; arrays performed twice, n of 4
Text: as §1, §2, §3

ING2 = conditions: ING2, GST-tagged; arrays performed twice, n of 4
Text: as §1, §2, §3

PHF8 = conditions: PHF8, GST-tagged; arrays performed twice, n of 4
Text: as §1, §2, §3

AIRE (PP) = conditions: AIRE (PP), GST-tagged; arrays performed twice, n of 4
Text: as §1, §2, §3

BAZ2B = conditions: BAZ2B, GST-tagged; arrays performed twice, n of 4
Text: as §1, §2, §3

ING3 = conditions: ING3, GST-tagged; arrays performed twice, n of 4
Text: as §1, §2, §3

BPTF (PB) = conditions: BPTF (PB), GST-tagged; arrays performed twice, n of 4
Text: as §1, §2, §3

PHF21A = conditions: PHF21A, GST-tagged; arrays performed twice, n of 4
Text: as §1, §2, §3

KDM5A (1) = conditions: KDM5A (1), GST-tagged; arrays performed twice, n of 4
Text: as §1, §2, §3

MLL5 = conditions: MLL5, GST-tagged; arrays performed twice, n of 4
Text: as §1, §2, §3

KDM5B (3) = conditions: KDM5B (3), GST-tagged; arrays performed twice, n of 4
Text: as §1, §2, §3

KDM5A (3) = conditions: KDM5A (3), GST-tagged; arrays performed twice, n of 4
Text: as §1, §2, §3

KDM4C (TTP) = conditions: KDM4C (TTP), GST-tagged; arrays performed twice, n of 4
Text: as §1, §2, §3

Row | Substance | Array Heatmap value (peptide array binding signal) (MORC3 (CW)) | Array Heatmap value (peptide array binding signal) (CHD5 (PPCC)) | Array Heatmap value (peptide array binding signal) (CHD5 (PCC)) | Array Heatmap value (peptide array binding signal) (PHF2) | Array Heatmap value (peptide array binding signal) (KDM7A) | Array Heatmap value (peptide array binding signal) (TAF3) | Array Heatmap value (peptide array binding signal) (ING5) | Array Heatmap value (peptide array binding signal) (RAG2) | Array Heatmap value (peptide array binding signal) (PHF23) | Array Heatmap value (peptide array binding signal) (DIDO1) | Array Heatmap value (peptide array binding signal) (PHRF1 (RP)) | Array Heatmap value (peptide array binding signal) (CHD4 (PPCC)) | Array Heatmap value (peptide array binding signal) (TRIM66 (PB)) | Array Heatmap value (peptide array binding signal) (ING1) | Array Heatmap value (peptide array binding signal) (SP140L) | Array Heatmap value (peptide array binding signal) (DPF2 (PPC2W2)) | Array Heatmap value (peptide array binding signal) (PHF13) | Array Heatmap value (peptide array binding signal) (ING4) | Array Heatmap value (peptide array binding signal) (ING2) | Array Heatmap value (peptide array binding signal) (PHF8) | other results
1 | H4K16ac + K20ac: H4 1-23 | 0.3738 | 0.5492 | 0.7957 | 0.4717 | 0.3784 | 0.2987 | 0.3611 | 0.2369 | 0.5182 | 0.6429 | 0.4351 | 0.5676 | 0.6284 | 0.529 | 0.3563 | 0.6637 | 0.6126 | 0.47 | 0.5955 | 0.3492 | Array Heatmap value (peptide array binding signal) (AIRE (PP)): 0.5176; Array Heatmap value (peptide array binding signal) (BAZ2B): 0.4551; Array Heatmap value (peptide array binding signal) (ING3): 0.4609; Array Heatmap value (peptide array binding signal) (BPTF (PB)): 0.3565; Array Heatmap value (peptide array binding signal) (PHF21A): 0.4767; Array Heatmap value (peptide array binding signal) (KDM5A (1)): 0.4687; Array Heatmap value (peptide array binding signal) (MLL5): 0.5457; Array Heatmap value (peptide array binding signal) (KDM5B (3)): 0.4989; Array Heatmap value (peptide array binding signal) (KDM5A (3)): 0.425; Array Heatmap value (peptide array binding signal) (KDM4C (TTP)): 0.4892
2 | H4S1p + K5ac + K8ac + K12ac + K16ac: H4 1-23 | 0.4113 | 0.6446 | 0.835 | 0.5298 | 0.3878 | 0.311 | 0.4228 | 0.2856 | 0.5865 | 0.7637 | 0.5208 | 0.615 | 0.6554 | 0.5918 | 0.3938 | 0.7325 | 0.677 | 0.5155 | 0.6187 | 0.3922 | Array Heatmap value (peptide array binding signal) (AIRE (PP)): 0.484; Array Heatmap value (peptide array binding signal) (BAZ2B): 0.5342; Array Heatmap value (peptide array binding signal) (ING3): 0.5554; Array Heatmap value (peptide array binding signal) (BPTF (PB)): 0.3984; Array Heatmap value (peptide array binding signal) (PHF21A): 0.5171; Array Heatmap value (peptide array binding signal) (KDM5A (1)): 0.5302; Array Heatmap value (peptide array binding signal) (MLL5): 0.5849; Array Heatmap value (peptide array binding signal) (KDM5B (3)): 0.545; Array Heatmap value (peptide array binding signal) (KDM5A (3)): 0.4753; Array Heatmap value (peptide array binding signal) (KDM4C (TTP)): 0.5634
